Assays:
[1] = Tissue binding assay, plasma (equilibrium dialysis); assay type: in vitro ADME; conditions: dialysis 4 hours at 37° C.
Description: [The source words this procedure for another target and reports this target under the same test.] (§1) Buffer preparation. A basic solution was prepared by dissolving 14.2 g/L Na2HPO4 and 8.77 g/L NaCl in deionized H2O. An acidic solution was prepared by dissolving 15.6 g/L NaH2PO4·2H2O and 8.77 g/L NaCl in deionized H2O. Using the acidic solution, the basic solution was then titrated to pH 7.4±0.1 and stored at 4° C. for up to 1 month. The stop solution was 100% CH3CN containing 200 ng/mL tolbutamide, 200 ng/mL labetalol and 50 ng/mL metformin.
(§2) Test method. Dialysis membrane strips were soaked in ultra-pure water at room temperature for ˜1 hour. Each membrane strip containing 2 membranes was separated and soaked in 20:80 EtOH/H2O (v/v) for ˜20 min, after which they were ready for use or were stored in the solution at 2-8° C. for up to 1 month. Prior to the experiment, the membrane was rinsed and soaked for 20 min in ultra-pure water. On the day of experiment, brain homogenate was thawed in a water bath at room temperature and incubated at 37° C. for 10 min before use. Test and control compounds were dissolved in DMSO to achieve 10 mM stock solutions. DMSO working solutions were prepared at 400 μM by diluting 10 μL of stock solution. To prepare the time zero (t=0) samples to be used for recovery determination, 50 μL aliquots of loading matrix were transferred in triplicate to the sample collection plate. The samples were immediately matched with opposite blank buffer to obtain a final volume of 100 μL of 1:1 matrix/dialysis buffer (v/v) in each well. 500 μL of stop solution were added to these t=0 samples. They were then stored at 2-8° C. pending further processes along with other post-dialysis samples. To load the dialysis device, an aliquot of 150 μL of the loading matrix was transferred to the donor side of each dialysis well in triplicate, and 150 μL of the dialysis buffer was loaded to the receiver side of the well. The dialysis plate was placed in a humidified incubator at 37° C. with 5% CO2 on a shaking platform that rotated slowly (about 100 rpm) for 4 hours. At the end of the dialysis, aliquots of 50 μL of samples were taken from both the buffer side and the matrix side of the dialysis device. These samples were transferred into new 96-well plates. Each sample was mixed with an equal volume of opposite blank matrix (buffer or matrix) to reach a final volume of 100 μL of 1:1 matrix/dialysis buffer (v/v) in each well. All samples were further processed by adding 500 μL of stop solution containing internal standards. The mixture was vortexed and centrifuged at 4000 rpm for about 20 min. An aliquot of 100 μL of supernatant of all the samples was then removed for LC-MS/MS analysis. The single blank samples were prepared by transferring 50 μL of blank matrix to a 96-well plate and adding 50 μL of blank PBS buffer to each well. Then the matrix-matched samples were further processed by adding 500 μL of stop solution containing internal standards, following the same sample processing method as the dialysis samples.
(§3) Data analysis. The % undiluted unbound, % undiluted bound and % recovery were calculated using the following equations:
(§4) % Undiluted Unbound=100*1/D/((1/(F/T)−1)+1/D)
(§5) % Undiluted Bound=100−% Undiluted Unbound
(§6) where F is the analyte concentration or peak area ratio of analyte/internal standard on the buffer (receiver) side of the membrane; T is the analyte concentration or peak area ratio of analyte/internal standard on the matrix (donor) side of the membrane; To is the analyte concentration or the peak area ratio of analyte/internal standard in the loading matrix sample at time zero; and D is the dilution factor determined as 4 in this assay.

[2] = Tissue binding assay, brain homogenate (equilibrium dialysis); assay type: in vitro ADME; conditions: dialysis 4 hours at 37° C., dilution factor 4
Description: as §1, §2, §3, §4, §5, §6

Row | Mouse plasma (% unbound) [1] | Mouse brain (% unbound) [2] | Compound
1 | 10.6 % unbound | 9.7 % unbound | Cc1cc(C(=O)N[C@H]2CC[C@H](N3CCC(F)(F)C3)CC2)nc(-n2ccnc2)n1 [Example 10, N-((1r,4r)-4-(3,3-difluoropyrrolidin-1-yl)cyclohexyl)-2-(1H-imidazol-1-yl)-6-methyl-pyrimidine-4-carboxamide]
2 | 4.1 % unbound | 3.6 % unbound | Cc1cc(C(=O)N[C@H]2CC[C@H](NC(C)(C)C(F)(F)F)CC2)nc(-n2ccnc2)n1 [Example 21, 2-(1H-imidazol-1-yl)-6-methyl-N-((1r,4r)-4-((1,1,1-trifluoro-2-methylpropan-2-yl)amino)cyclohexyl)pyrimidine-4-carboxamide]

The next lines start with the compound.

Row | Compound | Mouse plasma (% unbound) [1] | Mouse brain (% unbound) [2]
3 | Cc1cc(C(=O)N[C@H]2CC[C@H](NCC(F)(F)F)CC2)nc(-n2ccnc2)n1 [Example 1, 2-(1H-imidazol-1-yl)-6-methyl-N-((1r,4r)-4-((2,2,2-trifluoroethyl)amino)cyclohexyl)pyrimidine-4-carboxamide] | 13.0 % unbound | 68.9 % unbound
4 | Cc1cc(C(=O)N[C@H]2CC[C@H](NCC(F)F)CC2)nc(-n2ccnc2)n1 [Example 2, N-((1r,4r)-4-((2,2-difluoroethyl)amino)cyclohexyl)-2-(1H-imidazol-1-yl)-6-methyl-pyrimidine-4-carboxamide] | 22.7 % unbound | 63.4 % unbound
5 | O=C(N[C@H]1CC[C@H](NCC(F)F)CC1)c1cc(C2CC2)nc(-n2ccnc2)n1 [Example 3, 6-cyclopropyl-N-((1r,4r)-4-((2,2-difluoroethyl)amino)cyclohexyl)-2-(1H-imidazol-1-yl)pyrimidine-4-carboxamide] | 7.4 % unbound | 13.5 % unbound

From US20250019369A1, “N-(4-aminocyclohexyl)pyrimidine-4-carboxamide derivatives as CD38 inhibitors” (Cerevance, Inc., priority 2021, published 2025)
